Data from patent publication US20260108480A1, “METHODS FOR INDUCING PROLIFERATION OF STEM CELLS” (UNIVERSITY OF PITTSBURGH-OF THE COMMONWEALTH SYSTEM OF …, priority 2022, published 2026).
“Also recorded” adds a separate entry of the source.

Assays:
[1] = system: primary PRX1 expressing SSCs isolated from the calvarial sutures of PRX1-creER-EGFP mice; assay: MTT proliferation assay of primary PRX1 expressing cells isolated from calvarial sutures; format: cell-based, mouse; settings: for ability to induce proliferation of primary PRX1 expressing SSCs (screen of 5 WNT inhibitors): most effective concentrations of previous studies, FIGS. 22A-22B
Text: (§1) FIGS. 22A-22H. […] (22A-22B) MTT proliferation assays of primary PRX1 expressing cells isolated from the calvarial sutures of PRX1-creER-EGFP+/+ mice. […] (22C) MTT proliferation assays of immortalized PRX1 expressing cells isolated from the calvarial sutures of PRX1-creER-EGFP+/+ mice. […] (22D-22F) Quantitative RT-PCR of osteoblast differentiation genes of immortalized PRX1 expressing cells isolated from the calvarial sutures of PRX1-creER-EGFP+/+ mice. […] (22G-22H) FAC-sorting analysis of tissue-cultured sutures isolated from of PRX1-creER-EGFP+/+ mice. Suture were explanted and cultured ex vivo.
(§2) WNT inhibitor candidates were identified by looking into cancer studies, as thousands of small molecules have been screened for their potential to inhibit WNT signaling in WNT-activated cancer cells (30). Several molecules have shown inhibition of canonical WNT activity in vitro but only few have been tested in vivo, in mice. Among those tested in vivo, 5 were selected because of their proven efficacy and safety: G007-LK (31), Pyrvinium (25,26), Quercetin (32,33), XAV939 (27), and Niclosamide (34). Actually, Niclosamide and Pyrvinium are anti-helminthic FDA-approved drugs (35,36) and Quercetin is a flavonol found in many fruits and vegetables that is used as an ingredient in supplements, beverages, or foods (33). […] Previous studies indicate that Niclosamide, besides inhibiting the WNT pathway, presents with various additional effects such as uncoupling oxidative phosphorylation and disrupting several different signaling pathways, including the NOTCH, mTORCT, NFkB, and STAT3 pathways (38-44).

[2] = system: immortalized PRX1 expressing cells isolated from the calvarial sutures of PRX1-creER-EGFP+/+ mice; assay: MTT proliferation assay of immortalized PRX1 expressing cells; format: cell-based, mouse; settings: after 48 hours (FIG. 22C)
Text: as §1
(§3) WNT inhibitor candidates were identified by looking into cancer studies, as thousands of small molecules have been screened for their potential to inhibit WNT signaling in WNT-activated cancer cells (30). Several molecules have shown inhibition of canonical WNT activity in vitro but only few have been tested in vivo, in mice. Among those tested in vivo, 5 were selected because of their proven efficacy and safety: G007-LK (31), Pyrvinium (25,26), Quercetin (32,33), XAV939 (27), and Niclosamide (34). Actually, Niclosamide and Pyrvinium are anti-helminthic FDA-approved drugs (35,36) and Quercetin is a flavonol found in many fruits and vegetables that is used as an ingredient in supplements, beverages, or foods (33). […]

[3] = system: osteoblast differentiation genes (RUNX2, SP7, Osteocalcin) in immortalized PRX1 expressing cells; assay: Quantitative RT-PCR of osteoblast differentiation genes in immortalized PRX1 expressing cells; format: cell-based, mouse
Text: as §1, §2

[4] = system: GFP+ (PRX1 expressing) and GFP- cells of explanted calvarial sutures of PRX1-creER-EGFP+/+ mice; assay: FAC-sorting analysis of tissue-cultured explanted sutures (ex vivo); format: cell-based, mouse
Text: as §1
However, no increase of GFP-cells (22H) is detected. All above studies (22A-22E) were repeated 2 or 3 times, with consistent results.
as §3, with “(34).” for “(34). Actually, Niclosamide and Pyrvinium are anti-helminthic FDA-approved drugs (35,36) and Quercetin is a flavonol found in many fruits and vegetables that is used as an ingredient in supplements, beverages, or foods (33).”

[5] = system: PRX1 expressing SSCs; assay: In vivo flow cytometry quantification of PRX1 expressing SSCs after IP treatment; set-up: species or system mouse; settings: 8-week old mice, 20 mg/Kg IP, 5 days/week
Protocol: (§4) FIGS. 23A-23D. […] (23A-23C) Flow cytometry was utilized to quantify the number of PRX1 expressing SSCs after treatment with Niclosamide (20 mg/kg of body weight, IP, 5 days/week, for 3 consecutive weeks) or with vehicle (control) in calvarial sutures (23A), in the periosteum of long bones (23B), and in the periodontal ligament of posterior molar teeth (23C). 4 mice/treatment (2 males and 2 females). (23D) Micro-computed tomography was utilized to measure bone mass (BV/TV) in the femurs of male and female mice after treatment with Niclosamide (20 mg/kg of body weight, IP, 5 days/week for 3 consecutive weeks) or with vehicle (control) (n=2). […] To do so, skeletally mature 8-week old mice were treated with intraperitoneal (IP) injections of Niclosamide (20 mg/Kg of body weight) or vehicle (control) 5 days/week, for 3 weeks (FIGS. 23A-23D).

[6] = Micro-computed tomography of femur bone mass (BV/TV) after IP treatment; format: in vivo, mouse; settings: male and female mice, 20 mg/Kg IP, 5 days/week, 3 weeks (FIG. 23D)
Protocol: as §4

[7] = system: critical size calvarial bone defect; assay: Local delivery in carboxymethylcellulose gel into critical size calvarial bone defect, μCT; format: in vivo, mouse; settings: 2 mm defect, 8 week old C57Bl/6 female mice, 10 μL 12% carboxymethylcellulose gel containing 100 μg niclosamide, 4 weeks after surgery, n=3
Protocol: Immediately after creation of the defect, 10 μL of a 12% carboxymethylcellulose gel (CONTROL) (24A) or 10 μL of a 12% carboxymethylcellulose gel containing 100 μg of niclosamide (TEST) (24B) were implanted within the bone defect. […] Student's t-test was used for statistical evaluation (n=3, ** indicates p<0.01). […] Immediately after creation of the defect, 10 μL of a 12% carboxymethylcellulose gel (CONTROL) or 10 μL of a 12% carboxymethylcellulose gel containing 100 g of niclosamide (TEST) were implanted within the bone defect (FIGS. 24A-24B). Bone regeneration was assessed by means of μCT, 4 weeks after surgery (FIG. 25). Student's t-test was used for statistical evaluation (n=3, ** indicates p<0.01).

[8] = system: periodontal ligament stem cells expressing Prx1 from mouse incisors; assay: Flow cytometry quantification of Prx1 (GFP) expressing periodontal ligament cells in vitro; format: cell-based; settings: 48 hours
Text: To perform these studies, transgenic mice was utilized expressing green fluorescent protein (GFP) under the Prx1 promoter. Thus, using these transgenic mice, quantification of GFP expressing cells by means of flow cytometry can be utilized to quantify Prx1 expressing cells.

[9] = system: critical size calvarial bone defect; assay: Local delivery absorbed into a collagen sponge into critical size calvarial bone defect, μCT; format: in vivo, mouse; settings: collagen sponge carrying 5 μg or 50 μg
Protocol: To test whether Niclosamide can induce bone regeneration when delivered by means of a collagen sponge instead of a methylcellulose gel, a critical size calvarial bone defect was created (2 mm in diameter) in the right parietal bone of skeletally mature C57Bl/6 female mice (8 week old mice). Immediately after creation of the defect, 5 μL of a 1 pg/pl solution of Niclosamide (dissolved in DMSO) or 5 μl of a 10 μg/μl solution of Niclosamide (dissolved in DMSO) were absorbed into a 1 mm×1 mm×1 mm collagen sponge. Then, the sponge carrying either 5 μg or 50 μg of Niclosamide was implanted into the calvarial bone defects (n=3). Bone defects of the control groups received collagen sponges absorbed with equal volumes (5 μl) of DMSO only Bone regeneration was assessed by means of μCT, 8 weeks after surgery (FIGS. 27A-27C) 3D rendering, (FIG. 27D) quantitative assessment of the regenerated Bone Volume (BV) within the Total Volume (TV) of the calvarial bone defects).

Row | Compound | ability to induce proliferation of primary PRX1 expressing SSCs (screen of 5 WNT inhibitors) [1] | proliferation (MTT) of primary PRX1 expressing cells ([1]; after 24 hours (FIG. 22A)) | proliferation (MTT) of primary PRX1 expressing cells ([1]; after 48 hours (FIG. 22B)) | effect on proliferation compared with the other screened molecules ([1]; comparison with Pyrvinium and Quercetin) | proliferation (MTT) of immortalized PRX1 expressing cells [2] | osteoblastic differentiation of PRX1 expressing SSCs (qRT-PCR) ([3]; FIGS. 22D-22F) | expression of RUNX2 (qRT-PCR) ([3]; immortalized PRX1 expressing cells, after 48 hours (FIG. 22D)) | expression of SP7 (qRT-PCR) ([3]; immortalized PRX1 expressing cells, after 48 hours (FIG. 22E)) | expression of Osteocalcin (OCN) (qRT-PCR) ([3]; immortalized PRX1 expressing cells, after 48 hours (FIG. 22F)) | GFP+ cells (PRX1 expressing cells) in explanted sutures ([4]; 2 weeks of incubation (FIG. 22G)) | GFP- cells (other cells of the sutures) in explanted sutures ([4]; 2 weeks of incubation (FIG. 22H)) | proliferation of PRX1 expressing SSCs in the calvarial sutures ([5]; 3 weeks (FIG. 23A)) | proliferation of PRX1 expressing SSCs in the periosteum of long bones ([5]; 3 weeks (FIG. 23B)) | proliferation of PRX1 expressing SSCs in the periodontal ligament of the mouse molars ([5]; 3 weeks (FIG. 23C)) | bone mass (BV/TV) of femurs [6] | bone regeneration by μCT [7] | number of Prx1 expressing (GFP) cells ([8]; 0.2 μM and 2 μM, more significant increases with higher doses) | increase of number of Prx1 expressing (GFP) cells ([8]; 2 μM, flow cytometry (FIG. 26E)) | regenerated Bone Volume (BV) within Total Volume (TV) of the defect by μCT ([9]; 2 mm defect, 8 week old C57Bl/6 female mice, 8 weeks after surgery, n=3, not statistically significant) | adverse events / general health ([9]; 8 weeks)
1 | O=c1c(O)c(-c2ccc(O)c(O)c2)oc2cc(O)cc(O)c12 [Quercetin] | able to consistently induce proliferation | – | – | – | – | – | – | – | – | – | – | – | – | – | – | – | – | – | – | –
2 | O=C(Nc1ccc([N+](=O)[O-])cc1Cl)c1cc(Cl)ccc1O [Niclosamide] | able to consistently induce proliferation | statistically significant proliferation | statistically significant proliferation | most significant and prolonged effect | could induce proliferation; also recorded: statistically significant proliferation | inhibits their osteoblastic differentiation | statistically significant downregulation | statistically significant downregulation | statistically significant downregulation | proliferation of the PRX1 expressing SSCs was observed; also recorded: statistically significant increase | could not be detected; also recorded: no increase | induces proliferation | induces proliferation | induces proliferation | does not significantly reduce the bone mass | substantial amount of bone regeneration | increase in number | ~3.5 folds | trend of increasing of the regenerated bone mass | no adverse events were recorded
3 | Cc1cc(/C=C/c2ccc3cc(N(C)C)ccc3[n+]2C)c(C)n1-c1ccccc1 [Pyrvinium] | able to consistently induce proliferation | statistically significant proliferation | statistically significant proliferation | – | – | – | – | – | – | – | – | – | – | – | – | – | – | – | – | –
